From the NIST ThermoML archive (doi:10.1021/je2006117)
“And” between values parts separate entries of the source, which are not always exact repeats. Identical values can stand only once.

Columns and labels:
[1] = mn = molality of the nth substance listed, in mol/kg; conditions: 298.15 K, 101 kPa, Liquid; for viscosity: Capillary tube (Ostwald / Ubbelohde) method; for mass density: Vibrating tube method
[2] = refractive index (Na D-line) (dimensionless); mn = molality of the nth substance listed, in mol/kg; conditions: 298.15 K, 101 kPa, Liquid, Standard Abbe refractometry
[3] = refractive index (Na D-line) (dimensionless); conditions: 298.15 K; 101.33 kPa; Liquid; Standard Abbe refractometry
[4] = 298.15 K, Liquid

CCC[n+]1ccn(C)c1.[Br-] [1-methyl-3-propylimidazolium bromide] + CN(C)C=O
Conditions | mass density, [1] [kg/m3] | refractive index, [2] | viscosity, [1] [mPa·s]
m1 = 0.0268 | 945.94 | 1.4289 | 0.88
m1 = 0.0444 | 947.2 | 1.4296 | 0.889
m1 = 0.0628 | 948.49 | 1.4302 | 0.897
m1 = 0.0851 | 950.04 | 1.4307 | 0.905
m1 = 0.103 | 951.26 | 1.4309 | 0.917
m1 = 0.1256 | 952.76 | 1.4312 | 0.923
m1 = 0.1396 | 953.7 | 1.4317 | 0.936
m1 = 0.1656 | 955.41 | 1.4321 | 0.956
m1 = 0.1826 | 956.49 | 1.4328 | 0.966
m1 = 0.2057 | 957.93 | 1.4336 | 0.975

CCCCCn1cc[n+](C)c1.[Br-] [1-pentyl-3-methylimidazolium bromide] + CN(C)C=O
Conditions | mass density, [1] [kg/m3] | refractive index, [2] | viscosity, [1] [mPa·s]
m1 = 0.0201 | 945.2 | 1.4291 | 0.877
m1 = 0.0409 | 946.55 | 1.4297 | 0.89
m1 = 0.0618 | 947.88 | 1.4299 | 0.899
m1 = 0.0853 | 949.36 | 1.4309 | 0.912
m1 = 0.1009 | 950.32 | 1.4312 | 0.925
m1 = 0.1186 | 951.39 | 1.4317 | 0.942
m1 = 0.1433 | 952.9 | 1.432 | 0.957
m1 = 0.161 | 953.93 | 1.4323 | 0.965
m1 = 0.1798 | 955.02 | 1.4329 | 0.982
m1 = 0.205 | 956.48 | 1.4333 | 0.991

C(=NCCN=Cc1ccccn1)c1ccccn1 [N,N'-bis(2-pyridinylmethylene)-1,2-ethanediamine] + CN(C)C=O
[1]
Conditions | mass density
m1 = 0.0401 | 945.31 kg/m3
m1 = 0.0484 | 945.37 kg/m3
m1 = 0.0728 | 946.33 kg/m3
m1 = 0.0941 | 946.67 kg/m3
m1 = 0.1205 | 947.34 kg/m3
m1 = 0.1508 | 948.27 kg/m3
m1 = 0.1553 | 949.12 kg/m3 and 949.25 kg/m3

CN(C)C=O [dimethylformamide]
Conditions | refractive index
[3] | 1.4285

[4]
Conditions | mass density | viscosity [mPa·s]
101 kPa, Vibrating tube method | 943.88 kg/m3 and 943.99 kg/m3 | –
101.33 kPa, Capillary tube (Ostwald / Ubbelohde) method | – | 0.8608

Conditions | mass density [kg/m3]
[4], 101.33 kPa | 943.88
